From PubChem BioAssay AID977607 (Broad Institute, 2014)
Activity calls are given as the source filed them.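 The calls were made as follows: active = curve reaches 40% activation over neutral controls at an AC40 no higher than the top valid tested concentration; inconclusive = no clear call, values can overlap the other calls; inactive = signal moving opposite to the expected increase, and the rest.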

Tested on: INS-1E GLuc insulin secretion reporter, luminescence, 2-3 h
Test: activators of glucose-dependent insulin secretion, dose response, cell-based, INS-1E, Gaussia luciferase, luminescence, cherry-pick, set 2 (AID 977607)

Compound	AC40
CCOc1nc(NC(=O)NS(=O)(=O)c2cccc(Cl)c2)nc(-c2ccccc2)n1	> 35 µM (inactive)
CNc1nc(Sc2ccccc2)cc(C(F)(F)F)n1	> 35 µM (inactive)
COC(=O)C1=C(C)N(Cc2cccc(C(F)(F)F)c2)C(=NCc2ccc(C(F)(F)F)cc2)NC1c1ccccc1 (configuration not stated)	9.69 µM
CC(C)Nc1nc(Nc2ccc(C(N)=O)cc2)c2sccc2n1	9.89 µM
N#Cc1c(-c2ccncc2)cc(-c2ccc(F)cc2)nc1N	2.96 µM
Cc1cccc(Cn2ccc(-c3ccc(Cl)cc3)c(C#N)c2=O)c1	7 µM
C[C@@H]1CN([C@H](C)CO)S(=O)(=O)c2ccc(-c3ccc(F)cc3)cc2O[C@H]1CN(C)Cc1cccc(F)c1	15.5 µM
CCOc1cc(/C=N/NC(=O)CCn2nc(C)cc2C)ccc1O	8.04 µM
CC(C)(C)c1ccccc1OCC(O)CN1CCN(c2ccccn2)CC1 (configuration not stated)	13.7 µM
NC(c1csc(NC(=O)Nc2cccc(C(F)(F)F)c2)n1)C1CCCCC1 (configuration not stated)	6.13 µM
CCOc1ccc(CN2C(=O)c3ccccc3C2=O)cc1C(=O)Nc1nnc(SCC)s1	13.6 µM
COc1cc2c(cc1OC)-c1cc(N3CCc4ccccc43)nc(=O)n1CC2	15.6 µM
Cc1ccc(C)c(C(=O)Nc2nc3ccccc3[nH]2)c1	8.78 µM
COc1ccc(C(C)NCCC(c2ccc(OC(C)C)cc2)c2ccccc2OC)cc1 (configuration not stated)	7.95 µM
CCc1nc(N)nc2c1C(=O)CC(C)(C)C2	> 35 µM (inactive)
O=C(NCCC1=CCCCC1)C(=O)NCC(c1ccco1)N1CCN(c2ccccc2)CC1 (configuration not stated)	6.33 µM
CNC[C@@H](Cc1ccccc1)NC[C@@H](CC1CCCCC1)NCCCc1ccccc1	> 35 µM (inactive)
CC(C)n1cc(/C(N)=N/O)c(=O)n(Cc2ccccc2)c1=O	9.39 µM
COc1ccc(-n2sc3ccccc3c2=O)cc1	3.14 µM
NC(CCc1ccccc1)c1csc(Nc2ccc(C(F)(F)F)cn2)n1 (configuration not stated)	10.4 µM
CCOC(=O)Cc1nn(Cc2ccccc2)c(=O)c2ccccc12	1.61 µM
N#Cc1c(-c2cccc(Br)c2)cc(-c2cccnc2)nc1N	5.82 µM
CCOC(=O)c1ccc(Nc2ncnc3ccc(C)cc23)cc1	12.4 µM
COc1ccc(CC(N)c2csc(NC(=O)Nc3ccc(C(C)C)cc3)n2)cc1 (configuration not stated)	6.81 µM
CC(=O)C1=C(S(=O)(=O)c2ccc(C)cc2)CS(=O)(=O)C1	1.23 µM
COc1cc(CNCCc2ccccc2)cc(Cl)c1OCc1ccccc1	9.79 µM

Compound	AC40
O=C(Nc1nc2ccccc2n1Cc1ccc(Cl)cc1)c1ccco1	7.18 µM
CCOc1ncccc1C(=O)Nc1ncc(C)s1	> 35 µM (inactive)
COc1ccc2c(c1)CCc1c(C(=O)Nc3cc(C)n(Cc4ccc(Cl)cc4)n3)noc1-2	6.07 µM
O=S(=O)(c1ccccc1F)N1C[C@@H]2N[C@H](C1)C2c1ccc(/C=C/c2ccccc2)cc1 (some centres not stated)	6.46 µM
OC(CNCCC1C=Nc2ccccc21)Cn1c2ccc(Cl)cc2c2cc(Cl)ccc21 (configuration not stated)	4.84 µM
O=c1c2ccccc2sn1-c1ccccc1F	3.87 µM
COc1ccc(CNCC(O)COc2ccc(C(C)(C)c3ccccc3)cc2)cc1 (configuration not stated)	6.55 µM
Cc1cccc(S(=O)(=O)N2C[C@@H]3N[C@H](C2)C3c2ccc(-c3ccccc3F)cc2)c1 (some centres not stated)	5.72 µM
CCCCc1c(-c2ccccc2OC)ncn1Cc1ccccc1C	10.4 µM
CCCCc1c(-c2ccc(F)cc2F)ncn1CCc1ccccc1OC	8.96 µM
OC(CNCCc1ccc(C(F)(F)F)cc1)COC(c1ccccc1)c1ccccc1 (configuration not stated)	6.21 µM
CCc1c(C)sc(NC(=O)c2cc(-c3ccc(OC)c(OC)c3)on2)c1C#N	9.5 µM
C=CCn1c(=NC(=O)c2cc(Cl)sc2Cl)sc2cc(S(N)(=O)=O)ccc21	5.55 µM
Fc1ccc(-c2ccc(C3[C@@H]4CN(Cc5ccccc5)C[C@H]3N4)cc2)cc1 (some centres not stated)	6.57 µM
Cn1c(=O)c2c(nc3n2CCCN3CCc2ccccc2)n(C)c1=O	> 35 µM (inactive)
O=C(N/N=C/c1ccc(O)cc1O)NC12CC3CC(CC(C3)C1)C2	18.1 µM
O=C(CCn1ccc2cc(S(=O)(=O)N3CCCC3)ccc21)NCc1cccc(F)c1	9.56 µM
CCCNC(=O)Cn1sc2nc(C)cc(C)c2c1=O	6.91 µM
COc1ccc(-c2cnnn2-c2ccc(N)cc2)cc1OC	> 35 µM (inactive)
COc1ccccc1C(=O)NC(=S)Nc1ccc2[nH]c(=O)[nH]c2c1	25.1 µM
O=C1Nc2cnc(Cl)nc2Nc2ccccc21	> 35 µM (inactive)
CN(C)CCNC(=O)c1cccc(-c2cc(NC=O)c3ncc(-c4cccc(C(F)(F)F)c4)n3c2)c1	24.4 µM
O=c1c2ccccc2nc(-c2ccco2)n1/N=C/c1ccccc1O	14.7 µM
OC(CNCCc1ccc(C(F)(F)F)cc1)COc1cccc2ccccc12 (configuration not stated)	4.54 µM
C/C(=N\NC(=O)c1ccc(Cl)c(Cl)c1)c1ccc(Br)s1	9.32 µM
COc1ccc2nc3ccccc3nc2c1NC(=O)c1ccc(Cl)cc1Cl	6.29 µM

Compound	AC40
COc1ccc(C(=O)Cc2ccc3c(c2)OCO3)c(O)c1	> 35 µM (inactive)
CCCCc1ccc(NC(=O)COc2ccc(C(=O)Nc3ccccc3OCC)cc2)cc1	2.88 µM
Cc1ccc(-c2nnc3sc(-c4ccncc4)nn23)cc1	13.5 µM
CCOc1cc(N2CCOCC2)c(OCC)cc1NC(=O)COC(=O)c1cc2ccccc2cc1O	10.3 µM
COc1cccc(-c2sc3ccccc3c2-c2ccc(OCCN(C)C)cc2)c1	3.37 µM
Cc1cc(NC(=O)c2cc(-c3cccc(Cl)c3)on2)no1	5.68 µM
CCCc1cc(-c2nc(-c3ccc(C)cc3)cs2)ccn1	10.2 µM
Cc1ccc(/C=N/NC(=O)COc2ccccc2-c2ccccc2)cc1	7.03 µM
Cc1ccccc1-c1ccc(C2[C@@H]3CN(S(=O)(=O)c4ccccc4C)C[C@H]2N3)cc1 (some centres not stated)	9.88 µM
N#Cc1ccc(-c2ccc([C@@H]3[C@H]4CNC[C@@H]3N4Cc3cc(F)ccc3F)cc2)cc1	16 µM
CCOc1ncccc1C(=O)Nc1ccc(S(=O)(=O)Nc2nc(C)cc(C)n2)cc1	33.2 µM
O=C(Nc1ccc(C(F)(F)F)cc1)N1C[C@@H]2N[C@H](C1)C2c1ccc(-c2ccccc2)cc1 (some centres not stated)	10.2 µM
COc1ccc(-c2nc(CCl)cs2)cc1OC	> 35 µM (inactive)
CC(C)CC#Cc1ccc2c(c1)O[C@H](CN(C)C(=O)C1CCCCC1)[C@@H](C)CN([C@@H](C)CO)S2(=O)=O	10.2 µM
COc1ccc(Br)cc1C(=O)Nc1cc(C)cc(C)c1	7.63 µM
COC(=O)C1=C(C)N(C)C(=NCc2cccc(C(F)(F)F)c2)NC1c1ccc(C(F)(F)F)cc1 (configuration not stated)	18.1 µM
CCN(CC)c1ccc(N=Cc2c(O)n(Cc3ccccc3)c(=O)[nH]c2=O)cc1	11.3 µM
COc1ccc(C(=O)NC(=S)Nc2ccc3c4c(cccc24)CC3)cc1OC	7.84 µM
O=C(O)c1ccc(/C=N/n2c(C3CCCCC3)n[nH]c2=S)cc1	5.87 µM
C/C(Cl)=C/CSc1nc2c(c(=O)[nH]c(=O)n2C)n1C(C)C	20 µM
CCCCc1c(-c2ccccc2OC)ncn1C(C)c1ccc(Cl)cc1 (configuration not stated)	12.6 µM
CC(C)CC#Cc1ccc2c(c1)O[C@@H](CN(C)Cc1cccc(F)c1)[C@H](C)CN([C@@H](C)CO)S2(=O)=O	7.13 µM
CC1(C(=O)NCc2cccc3ccccc23)CCN1Cc1ccc(OC(F)(F)F)cc1 (configuration not stated)	14.3 µM
CC(C)(C)OC(=O)N[C@@H](Cc1ccccc1)c1nnc(S(=O)(=O)Cc2ccccc2)o1	3.69 µM
O=C(Nc1ccc2c(c1)OCO2)N1C[C@@H]2N[C@H](C1)C2c1ccc(C=Cc2ccccc2)cc1 (some centres not stated)	9.05 µM
